Data published in patent US4914191A, “Anthracycline derivatives having cytostatic activity” (Behringwerke Aktiengesellschaft, priority 1987, dated 1990).
≈ marks a conversion by molar mass, not a printed value. Like-named read-outs stand apart in the source and are kept apart here.

Tests used:
L1210 leukemia cells = assay: cross-resistance in vitro, MTT assay on sensitive and adriamycin (doxorubicin)-resistant L1210 leukemia cells; format: cell-based, mouse; details: 3d incubation
Experimental: L1210, A 549 or HT 29 in the exponential phase of growth are incubated in a cell density of 5×10^3 cells/ml in RPMI 1640 in a 96-well microtiter plate for 72 hours with various concentrations of the test substance at 37° C., 5% CO2 and 95% relative humidity. Control experiments contain merely growth medium in place of the test substance. Each test substance and the control are determined in quadruplicate. After incubation for 65 hours, 50 μl of MTT solution (2.5 mg/ml in phosphate-buffered saline) are added. In the presence of live cells, MTT is reduced to a dark-red insoluble formazan dyestuff. This reaction is complete after 7 hours (L1210 cells) or after 24 hours (A 549, HT 29 cells), and the supernatant medium is carefully removed by aspiration. The insoluble dyestuff is dissolved by addition of 100 μl of DMSO, and the extinction of the resulting solution at a wavelength of 492 nm is then measured for each well in a Flow 340 CC multiscan photometer.
The ratio of the extinctions of treated and untreated cells yields a dose-effect plot from which the concentration which just kills 50% of the cells (IC50) can be read off. The coefficient of variation for repeat tests is less than 15%.
The cross-resistance between the particular test compound and doxorubicin is determined using the MTT assay (for method, see above) on sensitive and resistant L1210 leukemia cells.
The resistant cell line was established by incubation of a sensitive subline with stepwise increasing concentrations of the reference compound.
The IC50 of the test compound on the resistant subline relative to the IC50 of the sensitive subline yields the degree of resistance both for the test compound (DR(T)) and for the reference compound (DR(R)) in accordance with the formula [formula]
In addition, the degree of cross-resistance (DCR) for the test compound is calculated in accordance with the formula [formula]
In the case where the loss of activity of the test compound on the resistant line related to the sensitive line is greater than that of the reference compound, a degree of cross-resistance of more than 100% is possible.

[1] = approximative toxicity, intraperitoneal (LD50); details: in vivo, ip; one intraperitoneal administration; read-out: Approximative toxicity LD50, 1xip
From the text: *3xip,q3d: three intraperitoneal administrations with an interval of thre
1xip: one intraperitoneal administration

[2] = tested on: L1210 mouse leukemia cells; assay: formation of colonies of L1210 leukemia cells in soft agar; format: cell-based; details: Mus musculus
Experimental: The cytostatic activity of the compounds according to the invention was tested using L1210 mouse leukemia cells. This made use of the formation of colonies of L1210 leukemia cells in agar plates. This method is used to detect the effect of the test substances on the growth behavior of the cells over 1 hour or over several generations. With a cell cycle lasting 10-12 hours, this means that about 14 consecutive generations are observed in a test lasting 7 days. In this test, the substances having cytostatic activity according to the invention bring about a reduction in the number of colonies to be observed by comparison with an untreated control sample.
500 leukemia cells per plate were incubated with various concentrations of the test substance at 37° C. for 1 hour. These cells were then washed twice with McCoy5A medium and finally, after addition of 0.3% agar, poured into Petri dishes. Controls were incubated only with fresh medium. In some cases, in place of the incubation for one hour, various concentrations of test substances were mixed with the upper agar layer in order in this way to achieve continuous exposure of the cells throughout the incubation time. After the agar had solidified, the plates were incubated at 37° C. in an incubator for 7 days (5% by vol. CO2, 95% relative humidity). The number of colonies with a diameter of more than 60 μm which had formed was then counted. The results have been given as the number of colonies in treated agar plates as a percentage of the untreated control. The IC50 was determined, as a measure of the activity of the substance, from the dose-effect plot obtained in this way.

With `CC[C@@]1(O)C[C@H](O[C@H]2C[C@H](N(C)C)[C@H](OC(C)=O)[C@H](C)O2)c2c(O)c3c(c(O)c2[C@H]1O[C@H]1C[C@H](N(C)C)[C@H](OC(C)=O)[C@H](C)O1)C(=O)c1cccc(O)c1C3=O` [Compound 9, 7,10-O-Bis-(4'-O-acetyl-α-L-rhodosaminyl)-β-rhodomycinone] the “Degree of cross-resistance to adriamycin” value (L1210 leukemia cells) was 6.0%, the “Degree of resistance of the cell” value (L1210 leukemia cells; IC50 resistant subline relative to IC50 sensitive line) was 6.0 and the LD50 [1] was 3.4 to 6.5 mg/kg. For the same molecule, the IC50 ([2]; 168 h, continuous exposure, 7 days, L1210 colony formation, read-out: Long-term incubation IC50) was 0.026 µg/mL (≈ 0.0331 µM) and the IC50 ([2]; 1 h incubation, then 7 days colony formation, L1210, read-out: 1 h Incubation IC50) was 0.06 µg/mL (≈ 0.0764 µM).
